Test results published in ChEMBL document CHEMBL1275354, “Anticonvulsant activity of 2,4(1H)-diarylimidazoles in mice and rats acute seizure models” (Bioorg Med Chem, 2010).
Active and inactive are the calls of the source. The rule behind the calls is not given here.

Assays:
[1] = tested on: Mus musculus; assay: Neurotoxicity in ip dosed albino CF1 mouse assessed as minimum dose required to cause toxicity after 0.5 hrs by rotarod test; format: organism-based; conditions: in vivo
[2] = tested on: Mus musculus; assay: Neurotoxicity in albino CF1 mouse assessed as minimal motor impairment at 30 mg/kg, ip after 0.5 hrs by rotarod test; format: toxicity, organism-based; set-up: dose 30 mg/kg, route intraperitoneal; conditions: in vivo
[3] = tested on: Mus musculus; assay: Anticonvulsant activity against subcutaneous metrazole-induced seizures in ip dosed albino CF1 mouse assessed as minimum effective dose after 4 hrs; format: functional; conditions: albino CF1, 4 h, read-out: MED
[4] = tested on: Mus musculus; assay: Neurotoxicity in albino CF1 mouse assessed as minimal motor impairment at 30 mg/kg, ip after 4 hrs by rotarod test; format: toxicity, organism-based; set-up: dose 30 mg/kg, route intraperitoneal; conditions: in vivo
[5] = tested on: Mus musculus; assay: Neurotoxicity in albino CF1 mouse assessed as minimal motor impairment at 100 mg/kg, ip after 0.5 hrs by rotarod test; format: toxicity, organism-based; set-up: dose 100 mg/kg, route intraperitoneal; conditions: in vivo
[6] = tested on: Mus musculus; assay: Neurotoxicity in albino CF1 mouse assessed as minimal motor impairment at 100 mg/kg, ip after 4 hrs by rotarod test; format: toxicity, organism-based; set-up: dose 100 mg/kg, route intraperitoneal; conditions: in vivo
[7] = tested on: Mus musculus; assay: Neurotoxicity in albino CF1 mouse assessed as minimal motor impairment at 300 mg/kg, ip after 0.5 hrs by rotarod test; format: toxicity, organism-based; set-up: dose 300 mg/kg, route intraperitoneal; conditions: in vivo
[8] = tested on: Mus musculus; assay: Neurotoxicity in albino CF1 mouse assessed as minimal motor impairment at 300 mg/kg, ip after 4 hrs by rotarod test; format: toxicity, organism-based; set-up: dose 300 mg/kg, route intraperitoneal; conditions: in vivo
[9] = tested on: Mus musculus; assay: Anticonvulsant activity in albino CF1 mouse assessed as protection against maximal electroshock-induced seizures at 100 mg/kg, ip after 4 hrs; format: functional, organism-based; set-up: dose 100 mg/kg
[10] = tested on: Mus musculus; assay: Anticonvulsant activity in albino CF1 mouse assessed as protection against maximal electroshock-induced seizures at 300 mg/kg, ip after 0.5 hrs; format: functional, organism-based; set-up: dose 300 mg/kg
[11] = tested on: Mus musculus; assay: Anticonvulsant activity in albino CF1 mouse assessed as protection against maximal electroshock-induced seizures at 300 mg/kg, ip after 4 hrs; format: functional, organism-based; set-up: dose 300 mg/kg
[12] = tested on: Mus musculus; assay: Anticonvulsant activity in albino CF1 mouse assessed as protection against subcutaneous metrazole-induced seizures at 30 mg/kg, ip after 0.5 hrs; format: functional, organism-based; set-up: dose 30 mg/kg
[13] = tested on: Mus musculus; assay: Anticonvulsant activity in albino CF1 mouse assessed as protection against subcutaneous metrazole-induced seizures at 30 mg/kg, ip after 4 hrs; format: functional, organism-based; set-up: dose 30 mg/kg
[14] = tested on: Mus musculus; assay: Anticonvulsant activity in albino CF1 mouse assessed as protection against subcutaneous metrazole-induced seizures at 100 mg/kg, ip after 0.5 hrs; format: functional, organism-based; set-up: dose 100 mg/kg
[15] = tested on: Mus musculus; assay: Anticonvulsant activity in albino CF1 mouse assessed as protection against subcutaneous metrazole-induced seizures at 100 mg/kg, ip after 4 hrs; format: functional, organism-based; set-up: dose 100 mg/kg
[16] = tested on: Mus musculus; assay: Anticonvulsant activity in albino CF1 mouse assessed as protection against subcutaneous metrazole-induced seizures at 300 mg/kg, ip after 0.5 hrs; format: functional, organism-based; set-up: dose 300 mg/kg
[17] = tested on: Mus musculus; assay: Anticonvulsant activity in albino CF1 mouse assessed as protection against subcutaneous metrazole-induced seizures at 300 mg/kg, ip after 4 hrs; format: functional, organism-based; set-up: dose 300 mg/kg
[18] = tested on: Mus musculus; assay: Neurotoxicity in albino CF1 mouse assessed as minimal motor impairment at 30 to 300 mg/kg, po after 4 hrs by rotarod test; format: toxicity, organism-based; set-up: dose 30-300 mg/kg, route oral; conditions: in vivo
[19] = tested on: Mus musculus; assay: Anticonvulsant activity in albino CF1 mouse assessed as protection against maximal electroshock-induced seizures at 30 mg/kg, ip after 0.5 hrs; format: functional, organism-based; set-up: dose 30 mg/kg
[20] = tested on: Mus musculus; assay: Anticonvulsant activity in albino CF1 mouse assessed as protection against maximal electroshock-induced seizures at 30 mg/kg, ip after 4 hrs; format: functional, organism-based; set-up: dose 30 mg/kg
[21] = tested on: Mus musculus; assay: Neurotoxicity in ip dosed albino CF1 mouse assessed as minimum dose required to cause toxicity after 4 hrs by rotarod test; format: organism-based; conditions: in vivo
[22] = tested on: Mus musculus; assay: Anticonvulsant activity against maximal electroshock-induced seizures in ip dosed albino CF1 mouse assessed as minimum effective dose after 0.5 hrs; format: functional; conditions: read-out: MED
[23] = tested on: Mus musculus; assay: Anticonvulsant activity against maximal electroshock-induced seizures in ip dosed albino CF1 mouse assessed as minimum effective dose after 4 hrs; format: functional; conditions: read-out: MED
[24] = tested on: Mus musculus; assay: Anticonvulsant activity against subcutaneous metrazole-induced seizures in ip dosed albino CF1 mouse assessed as minimum effective dose after 0.5 hrs; format: functional; conditions: albino CF1, 0.5 h, read-out: MED
[25] = tested on: Mus musculus; assay: Neurotoxicity in albino CF1 mouse assessed as minimal motor impairment at 30 to 300 mg/kg, ip after 0.5 hrs by rotarod test; conditions: in vivo
[26] = tested on: Mus musculus; assay: Anticonvulsant activity in albino CF1 mouse assessed as protection against maximal electroshock-induced seizures at 100 mg/kg, ip after 0.5 hrs; format: functional, organism-based; set-up: dose 100 mg/kg

Row | Structure (SMILES) | MED [1] | Activity [2] | minimal effective dose [3] | Activity [4] | Activity [5] | Activity [6] | Activity [7] | Activity [8] | Activity [10] | Activity [11] | Activity [12] | Activity [13] | Activity [14] | Activity [15] | Activity [20] | MED [21] | minimal effective dose [22] | minimal effective dose [23] | minimal effective dose [24] | Activity [25] | also measured
1 | O=[N+]([O-])c1ccc(-c2c[nH]c(-c3ccccc3)n2)cc1 | > 300 mg/kg | Non-toxic | > 300 mg/kg | Non-toxic | Non-toxic | Non-toxic | Non-toxic | Non-toxic | Active | Active | inactive | inactive | inactive | inactive | inactive | > 300 mg/kg | 100 mg/kg | 100 mg/kg | > 300 mg/kg | Non-toxic | Activity [9]: inactive; Activity [16]: inactive; Activity [17]: inactive; Activity [18]: Non-toxic; Activity [19]: inactive
2 | Clc1ccc(-c2nc(-c3ccccc3)c[nH]2)cc1 | > 300 mg/kg | Non-toxic | > 300 mg/kg | Non-toxic | Non-toxic | Non-toxic | Non-toxic | Non-toxic | inactive | inactive | inactive | inactive | inactive | inactive | inactive | > 300 mg/kg | > 300 mg/kg | > 300 mg/kg | > 300 mg/kg | Non-toxic | Activity [26]: inactive; Activity [9]: inactive; Activity [16]: inactive; Activity [17]: inactive; Activity [18]: Non-toxic; Activity [19]: inactive
3 | FC(F)(F)c1cccc(-c2c[nH]c(-c3cccc(C(F)(F)F)c3)n2)c1 | > 300 mg/kg | Non-toxic | > 300 mg/kg | Non-toxic | Non-toxic | Non-toxic | Non-toxic | Non-toxic | inactive | Active | inactive | inactive | inactive | inactive | inactive | > 300 mg/kg | > 300 mg/kg | 100 mg/kg | > 300 mg/kg | Non-toxic | Activity [26]: inactive; Activity [16]: inactive; Activity [17]: inactive; Activity [18]: Non-toxic
4 | O=[N+]([O-])c1ccc(-c2nc(-c3ccccc3)c[nH]2)cc1 | > 300 mg/kg | Non-toxic | 100 mg/kg | Non-toxic | Non-toxic | Non-toxic | Non-toxic | Non-toxic | Active | Active | inactive | inactive | inactive | inactive | inactive | > 300 mg/kg | 100 mg/kg | 100 mg/kg | > 300 mg/kg | Non-toxic | Activity [16]: inactive; Activity [18]: Non-toxic; Activity [19]: inactive
5 | c1ccc(-c2c[nH]c(-c3ccco3)n2)cc1 | 100 mg/kg | Non-toxic | > 300 mg/kg | Non-toxic | Non-toxic | Non-toxic | Toxic | Toxic | Active | Active | inactive | inactive | inactive | inactive | inactive | 100 mg/kg | 100 mg/kg | 100 mg/kg | > 300 mg/kg | Non-toxic | Activity [9]: inactive; Activity [16]: inactive; Activity [17]: inactive; Activity [19]: inactive
6 | c1ccc(-c2c[nH]c(-c3ccoc3)n2)cc1 | 100 mg/kg | Non-toxic | > 300 mg/kg | Non-toxic |  | Non-toxic | Toxic | Toxic | Active |  | inactive | inactive | inactive | inactive | inactive | > 100 mg/kg | 100 mg/kg | > 300 mg/kg | > 300 mg/kg | Non-toxic | Activity [9]: inactive; Activity [18]: Non-toxic; Activity [19]: inactive
